Source: patent US6878702B2, “Anti-inflammatory agents” (Orion Corporation, priority 2000, dated 2005)

Legend:
[1] = test system: carrageenan-induced rat paw edema; test: Carrageenan-induced paw edema in rats; type: in vivo; settings: 3 h, male Wistar rats
Experimental: The acute inflammation was induced to the male Wistar rats by an injection of 0.1 ml of 1 or 2% lambda-carrageenan solution into the subplantar tissue of the right hind paw (=1 or 2 mg/paw). Three hours after the carrageenan injection the rats were killed. Both hind paws were cut off just above the heel and weighed. The test compounds (levosimendan and dextrosimendan) were administered orally 30 minutes before the induction of inflammation using dosing levels:
Control rats were included in each experiment. The difference between the weight of the right and the left hind paw was regarded as swelling. 9-10 animals were included in each group.

[2] = test system: mitochondrial KATP channel; test: Mitochondrial ATP dependent potassium channel opening: membrane potential (ΔΨ) of isolated liver mitochondria, rhodamine 123; type: biochemical, rat; settings: for ΔΨ of rat liver mitochondria in the choline chloride medium / ΔΨ of rat liver mitochondria in KCl medium: <2.58 μM concentration; for ΔΨ of rat liver mitochondria in KCl medium: respiring only on endogenous substrates, KCl medium with 400 μM ATP and 1 mg oligomycin/mg protein, FIG. 2; for effect on ΔΨ in presence of 5-hydroxydecanoate (5-HD), selective blocker of mitochondrial KATP channel: with 5-HD, data not shown
Description: In respiring mitochondria, the decrease in ΔΨ due to the KATP channel opening is compensated by an increased respiration rate. When mitochondria respires only on endogenous substrates, and phosphorylation is blocked by oligomycin, the respiration rate is sufficient to generate a high ΔΨ. However, opening of KATP channels leads to a decrease in ΔΨ, which could not be compensated by increased respiration rate. In such a model, opening of KATP channel is unmasked, and can be recorded. This model was applied to test if opening could be induced by dextrosimendan and levosimendan.
Mitochondria were isolated from rat livers by differential centrifugation in medium containing 210 mM mannitol, 70 mM sucrose, 10 mM Hepes, 1 mM EGTA and 5 mg/ml bovine serum albumin, pH 7.4. The mitochondrial protein concentration was determined by modified Biuret method. Oxygen consumption of isolated liver mitochondria was recorded at 25° C. by means of the Clark-type electrode system in the KCl medium (100 mM KCl, 2 mM KH2PO4, 10 mM HEPES, 1 mM MgCl2, pH 7.4 with TRIZMA base) or choline chloride medium (100 mM choline chloride, 2 mM NaH2PO4, 10 mM HEPES, 1 mM MgCl2, pH 7.4 with TRIZMA base). The final mitochondrial protein concentration used in experiments was 1 mg protein/ml. For studies of respiring mitochondria, 5 mM succinate in the presence of 5 μM rotenone was used as substrate.
Membrane potential (ΔΨ) of liver mitochondria was measured with rhodamine 123 as a fluorescent probe using the excitation at 503 nm and emission at 527 nm at room temperature with the Hitachi F4000 fluorometer. The difference in fluorescense between mitochondria with addition of FCCP (0.4 μM) and without it was taken as 100%, and decrease in membrane potential by the tested compounds was expressed in % of FCCP effect.

Compound	carrageenan-induced rat paw edema (swelling, weight difference of hind paws) ([1]; carrageenan 2 mg/paw, 10, 30 and 100 mg/kg orally 30 min before, FIG. 3b)	ΔΨ of rat liver mitochondria in the choline chloride medium [2]	ΔΨ of rat liver mitochondria in KCl medium [2]	effect on ΔΨ in presence of 5-hydroxydecanoate (5-HD), selective blocker of mitochondrial KATP channel [2]	melting point	carrageenan-induced rat paw edema (swelling, weight difference of hind paws) ([1]; carrageenan 1 mg/paw, 0.1, 1 and 10 mg/kg orally 30 min before, FIG. 3a)
CC1CC(=O)NN=C1c1ccc(NN=C(C#N)C#N)cc1 (single isomer, unassigned; (+)) [Dextrosimendan]	inhibited the carrageenan-induced rat paw edema significantly	did not significantly change	decreased	abolished		
CC1SC(=O)NN=C1c1ccc(NN=C(C#N)C#N)cc1 (single isomer, unassigned; (+)) [compound B, (+)-[[4-(3,6-dihydro-6-methyl-2-oxo-2H-1,3,4-thiadiazin-5-yl)phenyl]hydrazono]propanedinitrile]					125 to 128 °C	
C[C@@H]1CC(=O)NN=C1c1ccc(NN=C(C#N)C#N)cc1 [levosimendan, reference compound]		did not significantly change	decreased	abolished		inhibited the carrageenan-induced rat paw edema significantly
